According to patent US11524968B2, “Heterocyclic compound as a protein kinase inhibitor” (HK inno.N Corporation, priority 2017, dated 2022):

Target: JAK1 (Homo sapiens (Human), UniProt P23458)
Experiment: Analysis of JAK1 activity inhibition ability (ADP-Glo Kinase Assay)
Format: biochemical
Settings: not given
Protocol: Test Example 1: Analysis of JAK1 Activity Inhibition Ability of Compound of Formula 1 (ADP-Glo™ Kinase Assay)
A JAK inhibition ability of a compound according to the present invention was identified as follows.
A control material and a test material were prepared for each concentration, in such a way that they were diluted by means of DMSO. At the same time, ATP (250 uM) and JAK substrate (JAK1, IRS-itide 40 ng/mL) were prepared, in such a way that they were diluted by means of kinase buffer (40 mM Tris-HCl pH 7.5, 20 mM MgCl2, 0.5 mg/mL BSA, 50 uM DTT).
A test drug for each concentration, substrate, ATP and JAK enzyme were mixed in an eppendorf tube, and reacted in a 30° C. incubator for 40 minutes.
ADP-Glo™ reagent contained in ADP-Glo™ Kinase Enzyme System (Promega, USA, V9571) was added into each eppendorf tube, and reacted in a 30° C. incubator for 40 minutes. A kinase detection reagent contained in ADP-Go™ Kinase Enzyme System was inserted into the eppendorf tube, then an integration time was set to 1 second by using Wallac Victor 2™, then luminescence was measured, and then JAKs phosphorylation inhibition ability of the test material was analyzed. The concentration of the compound, which causes 50% of the JAK enzyme activity inhibition in comparison With the control group, was determined as IC50 (nM) of an inhibitor, wherein the results thereof are shown in a following table 1.

Chain of JAK1 (P23458 whole entry): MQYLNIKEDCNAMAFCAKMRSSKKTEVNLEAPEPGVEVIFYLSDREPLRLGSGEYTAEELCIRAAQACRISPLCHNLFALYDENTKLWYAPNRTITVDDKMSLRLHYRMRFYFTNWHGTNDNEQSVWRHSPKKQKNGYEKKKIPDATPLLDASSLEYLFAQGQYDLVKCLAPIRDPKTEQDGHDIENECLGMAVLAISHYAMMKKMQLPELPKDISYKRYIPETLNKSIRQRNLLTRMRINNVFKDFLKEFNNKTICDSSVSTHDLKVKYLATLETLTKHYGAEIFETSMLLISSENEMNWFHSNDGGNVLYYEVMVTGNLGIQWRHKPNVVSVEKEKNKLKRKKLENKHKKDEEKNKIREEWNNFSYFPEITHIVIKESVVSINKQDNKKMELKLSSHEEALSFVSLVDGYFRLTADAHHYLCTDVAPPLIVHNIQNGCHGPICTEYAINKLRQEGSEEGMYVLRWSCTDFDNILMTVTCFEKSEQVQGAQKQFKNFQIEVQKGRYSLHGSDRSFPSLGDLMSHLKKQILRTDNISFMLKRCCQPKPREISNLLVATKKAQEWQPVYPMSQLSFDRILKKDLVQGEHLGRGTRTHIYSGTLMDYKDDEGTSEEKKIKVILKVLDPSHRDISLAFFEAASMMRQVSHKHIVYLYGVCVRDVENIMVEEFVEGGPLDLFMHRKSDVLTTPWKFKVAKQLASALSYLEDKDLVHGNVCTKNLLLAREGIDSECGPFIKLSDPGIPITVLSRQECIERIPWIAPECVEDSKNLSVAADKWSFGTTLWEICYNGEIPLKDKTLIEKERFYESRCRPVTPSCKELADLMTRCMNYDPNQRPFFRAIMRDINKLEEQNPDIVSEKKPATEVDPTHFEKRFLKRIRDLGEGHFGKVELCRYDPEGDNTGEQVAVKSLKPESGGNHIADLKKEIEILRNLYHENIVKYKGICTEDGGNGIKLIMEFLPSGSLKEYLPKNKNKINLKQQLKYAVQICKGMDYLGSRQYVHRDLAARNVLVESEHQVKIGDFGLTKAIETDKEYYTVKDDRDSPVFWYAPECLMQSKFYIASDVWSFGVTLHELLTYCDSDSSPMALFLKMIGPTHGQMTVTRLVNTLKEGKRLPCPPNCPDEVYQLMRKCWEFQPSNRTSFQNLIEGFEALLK

Row | Structure (SMILES) | IC50
1 | O=C1CCN(C(=O)Cc2ccc(-c3cc(NC(=O)C4CC4)nc4[nH]ccc34)cc2)CC1 [Example 549, N-(4-(4-(2-oxo-2-(4-oxopiperidin-1-yl)ethyl)phenyl)-1H-pyrrolo[2,3-b]pyridin-6-yl)cyclopropanecarboxamide] | 20 to 200 nM

Same assay, conditions: JAK1 enzyme, ADP-Glo luminescence, ATP 250 uM, IRS-itide substrate, 30° C. 40 minutes; read-out: IC50

Row | Structure (SMILES) | IC50
2 | O=C(Nc1cc(-c2ccc(CC(=O)N3CCS(=O)(=O)CC3)cc2)c2cc[nH]c2n1)C1CC1 [Example 535, N-(4-(4-(2-(1,1-dioxidothiomorpholino)-2-oxoethyl)phenyl)-1H-pyrrolo[2,3-b]pyridin-6-yl)cyclopropanecarboxamide] | 20 to 200 nM
3 | O=C(Nc1cc(C2=CCC(NC(=O)C3CC3)CC2)c2cc[nH]c2n1)C1CC1 (stereo not drawn) [Example 246, N-(4-(6-(cyclopropanecarboxamido)-1H-pyrrolo[2,3-b]pyridin-4-yl)cyclohex-3-en-1-yl)cyclopropanecarboxamide] | 20 to 200 nM
4 | N#CCC(=O)Nc1ccc(-c2cc(NC(=O)C3CC3)nc3[nH]ccc23)cc1 [Example 239, N-(4-(4-(2-cyanoacetamido)phenyl)-1H-pyrrolo[2,3-b]pyridine-6-yl)cyclopropanecarboxamide] | 20 to 200 nM
5 | CC1CN(C(=O)c2ccc(NCCN3CCOCC3)c(F)c2)CC=C1c1cc(NC(=O)C2CC2)nc2[nH]ccc12 (stereo not drawn) [Example 323, N-(4-(1-(3-fluoro-4-((2-morpholinoethyl)amino)benzoyl)-3-methyl-1,2,3,6-tetrahydropyridin-4-yl)-1H-pyrrolo[2,3-b]pyridin-6-yl)cyclopropanecarboxamide] | > 200 nM
6 | CC(=O)N1CCC(S(=O)(=O)Nc2ccc(-c3cc(NC(=O)C4CC4)nc4[nH]ccc34)cc2)CC1 [Example 18, N-(4-(4-((1-acetylpiperidine)-4-sulfonamido)phenyl)-1H-pyrrolo[2,3-b]pyridin-6-yl)cyclopropanecarboxamide] | 20 to 200 nM
7 | O=C(Nc1cc(-c2cnn(Cc3ccccc3)c2)c2cc[nH]c2n1)C1CC1 [Example 479, N-(4-(1-benzyl-1H-pyrazol-4-yl)-1H-pyrrolo[2,3-b]pyridin-6-yl)cyclopropanecarboxamide] | 20 to 200 nM
8 | N#CCC(=O)N1CCC(N2CC(CC#N)(N3CC=C(c4cc(NC(=O)C5CC5)nc5[nH]ccc45)CC3)C2)CC1 [Example 622, N-(4-(1-(1-(1-(2-cyanoacetyl)piperidin-4-yl)-3-(cyanomethyl)azetidin-3-yl)-1,2,3,6-tetrahydropyridin-4-yl)-1H-pyrrolo[2,3-b]pyridin-6-yl)cyclopropanecarboxamide] | 20 to 200 nM
9 | N#CC1CCN(C(=O)Cc2ccc(-c3cc(NC(=O)C4CC4)nc4[nH]ccc34)cc2)CC1 [Example 548, N-(4-(4-(2-(4-cyanopiperidin-1-yl)-2-oxoethyl)phenyl)-1H-pyrrolo[2,3-b]pyridin-6-yl)cyclopropanecarboxamide] | 20 to 200 nM
10 | N#CC1CN(Cc2ccc(-c3cc(NC(=O)C4CC4)nc4[nH]ccc34)cc2)C1 [Example 586, N-(4-(4-((3-cyanoazetidin-1-yl)methyl)phenyl)-1H-pyrrolo[2,3-b]pyridin-6-yl)cyclopropanecarboxamide] | 20 to 200 nM
11 | O=C(Nc1nc(-c2ccc(NS(=O)(=O)c3ccc(F)c(F)c3)c(F)c2)c2cc[nH]c2n1)C1CC1 [Example 205, N-(4-(4-((3,4-difluorophenyl)sulfonamido)-3-fluorophenyl)-7H-pyrrolo[2,3-d]pyrimidin-2-yl)cyclopropanecarboxamide] | 20 to 200 nM
12 | CCCCNC(=S)N1CCC(c2cc(NC(=O)C3CC3)nc3[nH]ccc23)CC1 [Example 659, N-(4-(1-(butylcarbamothioyl)piperidin-4-yl)-1H-pyrrolo[2,3-b]pyridin-6-yl)cyclopropanecarboxamide] | > 200 nM
13 | CC1CN(C(=O)c2cncc(Br)c2)CC=C1c1cc(NC(=O)C2CC2)nc2[nH]ccc12 (stereo not drawn) [Example 324, N-(4-(1-(5-bromonicotinoyl)-3-methyl-1,2,3,6-tetrahydropyridin-4-yl)-1H-pyrrolo[2,3-b]pyridin-6-yl)cyclopropanecarboxamide] | 20 to 200 nM
14 | O=C(Nc1cc(-c2ccc(C3(C(=O)N4CCS(=O)(=O)CC4)CC3)cc2)c2cc[nH]c2n1)C1CC1 [Example 577, N-(4-(4-(1-(1,1-dioxidothiomorpholine-4-carbonyl)cyclopropyl)phenyl)-1H-pyrrolo[2,3-b]pyridin-6-yl)cyclopropanecarboxamide] | 20 to 200 nM
15 | CC1=C(c2cc(NC(=O)C3CC3)nc3[nH]ccc23)CCN(C(=O)CC#N)C1 [Example 296, N-(4-(1-(2-cyanoacetyl)-5-methyl-1,2,3,6-tetrahydropyridin-4-yl)-1H-pyrrolo[2,3-b]pyridin-6-yl)cyclopropanecarboxamide] | 20 to 200 nM
16 | CCCCNC(=O)Nc1ccc(-c2cc(NC(=O)C3CC3)nc3[nH]ccc23)cc1 [Example 433, N-(4-(4-(3-butylureido)phenyl)-1H-pyrrolo[2,3-b]pyridin-6-yl)cyclopropanecarboxamide] | 20 to 200 nM
17 | CCCCNC(=S)Nc1ccc(-c2nc(NC(=O)C3CC3)nc3[nH]ccc23)cc1 [Example 465, N-(4-(4-(3-butylthioureido)phenyl)-7H-pyrrolo[2,3-d]pyrimidin-2-yl)cyclopropanecarboxamide] | 20 to 200 nM
18 | N#CCCn1cc(-c2cc(NC(=O)C3CC3)nc3[nH]ccc23)cn1 [Example 477, N-(4-(1-(2-cyanoethyl)-1H-pyrazol-4-yl)-1H-pyrrolo[2,3-b]pyridin-6-yl)cyclopropanecarboxamide] | < 20 nM
19 | CCCCNC(=O)Nc1ccc(-c2nc(NC(=O)C3CC3)nc3[nH]ccc23)cc1 [Example 439, N-(4-(4-(3-butylureido)phenyl)-7H-pyrrolo[2,3-d]pyrimidin-2-yl)cyclopropanecarboxamide] | 20 to 200 nM
20 | N#CC1(CS(=O)(=O)Nc2cc(F)c(-c3cc(NC(=O)C4CC4)nc4[nH]ccc34)cc2F)CC1 [Example 105, N-(4-(4-(((1-cyanocyclopropyl)methyl)sulfonamido)-2,5-difluorophenyl)-1H-pyrrolo[2,3-b]pyridin-6-yl)cyclopropanecarboxamide] | < 20 nM
21 | CC1CN(C(=O)c2cccc(CCN3C(=O)COCC3=O)c2)CC=C1c1cc(NC(=O)C2CC2)nc2[nH]ccc12 (stereo not drawn) [Example 315, N-(4-(1-(3-(2-(3,5-dioxomorpholino)ethyl)benzoyl)-3-methyl-1,2,3,6-tetrahydropyridin-4-yl)-1H-pyrrolo[2,3-b]pyridin-6-yl)cyclopropanecarboxamide] | > 200 nM
22 | CCCCNC(=O)N1CC=C(c2cc(NC(=O)C3CC3)nc3[nH]ccc23)CC1 [Example 444, N-butyl-4-(6-(cyclopropanecarboxamido)-1H-pyrrolo[2,3-b]pyridin-4-yl)-3,6-dihydropyridine-1 (2H)-carboxamide] | 20 to 200 nM
23 | N#Cc1ccc(C(=O)N2CC=C(c3cc(NC(=O)C4CC4)nc4[nH]ccc34)CC2)cc1 [Example 293, N-(4-(1-(4-cyanobenzoyl)-1,2,3,6-tetrahydropyridin-4-yl)-1H-pyrrolo[2,3-b]pyridin-6-yl)cyclopropanecarboxamide] | 20 to 200 nM
24 | CS(=O)(=O)N1CC(n2cc(-c3cc(NC(=O)C4CC4)nc4[nH]ccc34)cn2)C1 [Example 603, N-(4-(1-(1-(methylsulfonyl)azetidin-3-yl)-1H-pyrazol-4-yl)-1H-pyrrolo[2,3-b]pyridin-6-yl)cyclopropanecarboxamide] | 20 to 200 nM
25 | O=C(Nc1cc(-c2ccc(OCc3ccc(F)cc3)cc2)c2cc[nH]c2n1)C1CC1 [Example 641, N-(4-(4-((4-fluorobenzyl)oxy)phenyl)-1H-pyrrolo[2,3-b]pyridin-6-yl)cyclopropanecarboxamide] | > 200 nM
26 | CCS(=O)(=O)N1CC(CC#N)(N2CC=C(c3cc(NC(=O)C4CC4)nc4[nH]ccc34)C(C)C2)C1 (stereo not drawn) [Example 626, N-(4-(1-(3-(cyanomethyl)-1-(ethylsulfonyl)azetidin-3-yl)-3-methyl-1,2,3,6-tetrahydropyridin-4-yl)-1H-pyrrolo[2,3-b]pyridin-6-yl)cyclopropanecarboxamide] | < 20 nM
27 | CCS(=O)(=O)NC1CC=C(c2cc(NC(=O)C3CC3)nc3[nH]ccc23)CC1 (stereo not drawn) [Example 151, N-(4-(4-(ethylsulfonamido)cyclohex-1-en-1-yl)-1H-pyrrolo[2,3-b]pyridin-6-yl)cyclopropanecarboxamide] | 20 to 200 nM
28 | C[C@@H]1CN(C(=O)CC2(C#N)CC2)CC=C1c1cc(NC(=O)C2CC2)nc2[nH]ccc12 [Example 415, (S)—N-(4-(1-(2-(1-cyanocyclopropyl)acetyl)-3-methyl-1,2,3,6-tetrahydropyridin-4-yl)-1H-pyrrolo[2,3-b]pyridin-6-yl)cyclopropanecarboxamide] | < 20 nM
29 | N#CC1(CS(=O)(=O)N2CC=C(c3cc(NC(=O)C4CC4)nc4[nH]ccc34)C2)CC1 [Example 213, N-(4-(1-(((1-cyanocyclopropyl)methyl)sulfonyl)-2,5-dihydro-1H-pyrrol-3-yl)-1H-pyrrolo[2,3-b]pyridin-6-yl)cyclopropanecarboxamide] | > 200 nM
30 | CC(C)(C)OC(=O)N[C@H]1CCN(c2cc(NC(=O)C3CC3)nc3[nH]ccc23)C1 [Example 697, tert-butyl (S)-(1-(6-(cyclopropanecarboxamido)-1H-pyrrolo[2,3-b]pyridin-4-yl)pyrrolidin-3-yl)carbamate] | > 200 nM
